Laboratory results from patent publication US20240218022A1, “ANTI-VISTA MACROCYCLIC PEPTIDES AND COMPOSITIONS” (BRISTOL-MYERS SQUIBB COMPANY, priority 2022, published 2024).
Read-outs that look alike come from different tables or passages of the source. Starred links: 1 amine or outer side, 2 acyl side, 3 side chain; linkers in the order of their positions; H or OH if unused. Positions of bridges follow the written chain, without caps; N, C: chain ends. Non-standard residues stand in square brackets, D forms with d. Residues, ends and D or L forms follow the SMILES beside them. Phe(4-COOH) = N[C@@H](Cc1ccc(C(=O)O)cc1)C(=O)O; NMeW = CN[C@@H](Cc1c[nH]c2ccccc12)C(=O)O; Phe(3-Br) = N[C@@H](Cc1cccc(Br)c1)C(=O)O; Phe(3-Me) = Cc1cccc(C[C@H](N)C(=O)O)c1; γGlu = O=C(O)[C@H](CCC(=O)[*:2])N[*:1]; 2Nal = N[C@@H](Cc1ccc2ccccc2c1)C(=O)O; βAsp = O=C(O)[C@H](CC(=O)[*:2])N[*:1]; Tic = O=C(O)[C@@H]1Cc2ccccc2CN1; Cit = NC(=O)NCCC[C@H](N)C(=O)O; Ahp(2) = CCCCC[C@H](N)C(=O)O; NMeNle = CCCC[C@H](NC)C(=O)O; Tle = CC(C)(C)[C@H](N)C(=O)O; NMeS = CN[C@@H](CO)C(=O)O; NHexGly = CCCCCCNCC(=O)O; Nle = CCCC[C@H](N)C(=O)O; Orn = NCCC[C@H](N)C(=O)O; Aun = NCCCCCCCCCCC(=O)O; AEEA = NCCOCCOCC(=O)O

Biological target: T1, mouse VISTA (mVISTA) (Mus musculus, UniProt Q9D659)
T1 construct: expressed in transfected cells; host or cells: Human embryonic kidney 293T cells
T1 sequence (Q9D659 33-308): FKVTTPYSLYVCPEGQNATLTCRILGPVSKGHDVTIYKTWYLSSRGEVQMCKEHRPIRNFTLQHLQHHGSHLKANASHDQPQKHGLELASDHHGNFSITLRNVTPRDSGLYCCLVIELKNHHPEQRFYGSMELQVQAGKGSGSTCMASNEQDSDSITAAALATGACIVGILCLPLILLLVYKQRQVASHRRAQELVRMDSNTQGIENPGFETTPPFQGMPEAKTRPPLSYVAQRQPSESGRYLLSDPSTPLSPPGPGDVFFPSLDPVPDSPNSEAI
Test: Cell-Based Binding High-Content Assay For mVISTA (HC CBA mVISTA)
In short: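 Read-out: Alexa 647–streptavidin signal imaged on fixed, Hoechst-stained mVISTA-293T cells, with IC50 taken from a four-parameter logistic curve. Compounds competed with 2 nM biotinylated peptide for 30 min at room temperature, tested under both no-wash and wash (1 h compound, media exchange, 1 h) formats.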

[1] = cell-based binding high-content assay, mVISTA, the 15th table, read-out: HC CBA mVISTA IC50
[2] = cell-based binding high-content assay, mVISTA, the 16th table, read-out: HC CBA mVISTA IC50
[3] = cell-based binding high-content assay, mVISTA, read-out: HC CBA miPr ISTA IC50
[4] = 293T cells expressing mouse VISTA, competition with biotinylated peptide (2 nM), read-out: HC CBA mVISTA IC50

## CCCCCCN1CC(=O)N[C@@H](Cc2ccc(O)cc2)C(=O)N[C@@H](CCCC)C(=O)N[C@@H](CC(N)=O)C(=O)N[C@@H](CCCNC(=N)N)C(=O)N(C)[C@@H](Cc2c[nH]c3ccccc23)C(=O)N[C@@H](CCCCC)C(=O)N2CCC[C@H]2C(=O)N[C@@H](C(C)C)C(=O)N[C@@H](CC(=O)O)C(=O)N[C@H](C(=O)NCC(=O)O)CSCC(=O)N[C@@H](Cc2ccc3ccccc3c2)C(=O)N[C@@H](Cc2c[nH]c3ccccc23)C(=O)N[C@@H](CC(=O)O)C1=O [compound 1261] ({CH2CO}-[2Nal]WD[NHexGly]Y[Nle]NR[NMeW][Ahp(2)]PVDCG-OH; thioether N-14)
[1]
  IC50: 11.7 nM

## CCCCCCN1CC(=O)N[C@@H](Cc2ccc(O)cc2)C(=O)N[C@@H](CC(C)C)C(=O)NCC(=O)N[C@@H](CCCNC(=N)N)C(=O)N[C@@H](CC(C)C)C(=O)N[C@@H](CCCCC)C(=O)N2CCC[C@H]2C(=O)N[C@@H](C(C)C)C(=O)N[C@@H](CO)C(=O)N[C@H](C(=O)NCC(N)=O)CSCC(=O)N[C@@H](Cc2ccc3ccccc3c2)C(=O)N[C@@H](Cc2ccc(O)cc2)C(=O)N[C@@H](CC(=O)O)C1=O [Ex 1275] ({CH2CO}-[2Nal]YD[NHexGly]YLGRL[Ahp(2)]PVSCG-NH2; thioether N-14)
[2]
  IC50: 35.9 nM

## CCCCCCN1CC(=O)N[C@@H](Cc2ccc(O)cc2)C(=O)N[C@@H](CCCC)C(=O)N[C@@H](CC(N)=O)C(=O)N[C@@H](CCCNC(N)=O)C(=O)N2Cc3ccccc3C[C@H]2C(=O)N[C@@H](CCCCC)C(=O)N2CCC[C@H]2C(=O)N[C@@H](C(C)C)C(=O)N[C@@H](CC(=O)O)C(=O)N[C@H](C(=O)NCC(N)=O)CSCC(=O)N[C@@H](Cc2ccc3ccccc3c2)C(=O)N[C@@H](Cc2ccc(O)cc2)C(=O)N[C@@H](CC(=O)O)C1=O [Ex 1305] ({CH2CO}-[2Nal]YD[NHexGly]Y[Nle]N[Cit][Tic][Ahp(2)]PVDCG-NH2; thioether N-14)
[2]
  IC50: 10.3 nM

## CCCCCCN1CC(=O)N[C@@H](Cc2ccc(O)cc2)C(=O)N[C@@H](CC(C)C)C(=O)N[C@@H](CC(N)=O)C(=O)N[C@@H](CCCNC(=N)N)C(=O)N[C@@H](CC(C)C)C(=O)N[C@@H](CCCCC)C(=O)N2CCC[C@H]2C(=O)N[C@@H](C(C)C)C(=O)N[C@@H](C(C)C)C(=O)N[C@H](C(=O)NCC(=O)NCCOCCOCC(=O)N[C@@H](CC(=O)O)C(=O)NCCOCCOCC(=O)NCCCCCCCCCCC(=O)O)CSCC(=O)N[C@@H](Cc2ccccc2)C(=O)N[C@@H](Cc2ccc(O)cc2)C(=O)N[C@@H](CC(=O)O)C1=O [compound 2012] ({CH2CO}-FYD[NHexGly]YLNRL[Ahp(2)]PVVCG[AEEA]D[AEEA][Aun]-OH; thioether N-14)
[3]
  IC50: 51.3 nM

## CCCCCCN1CC(=O)N[C@@H](Cc2ccc(O)cc2)C(=O)N[C@@H](CCCCC)C(=O)N[C@@H](CC(N)=O)C(=O)N[C@@H](CCCNC(=N)N)C(=O)N(C)[C@@H](CCCC)C(=O)N[C@@H](CCCCC)C(=O)N2CCC[C@H]2C(=O)N[C@@H](C(C)C)C(=O)N[C@@H](CC(=O)O)C(=O)N[C@H](C(=O)NCC(=O)O)CSCC(=O)N[C@@H](Cc2ccc3ccccc3c2)C(=O)N[C@@H](Cc2c[nH]c3ccccc23)C(=O)N[C@@H](CC(=O)O)C1=O [compound 1251] ({CH2CO}-[2Nal]WD[NHexGly]Y[Ahp(2)]NR[NMeNle][Ahp(2)]PVDCG-OH; thioether N-14)
[1]
  IC50: 12.5 nM

## CCCCCCN1CC(=O)N[C@@H](Cc2ccc(O)cc2)C(=O)N[C@@H](CCCC)C(=O)NCC(=O)N[C@@H](CCCNC(=N)N)C(=O)N[C@@H](CC(C)C)C(=O)N[C@@H](CCCCC)C(=O)N2CCC[C@H]2C(=O)N[C@@H](C(C)C)C(=O)N[C@@H](CC(N)=O)C(=O)N[C@H](C(=O)N[C@@H](CCC(=O)NCCCCCCCCCCC(=O)O)C(=O)O)CSCC(=O)N[C@@H](Cc2ccccc2)C(=O)N[C@@H](Cc2ccc(O)cc2)C(=O)N[C@@H](CC(=O)O)C1=O [Example 2130] ({CH2CO}-FYD[NHexGly]Y[Nle]GRL[Ahp(2)]PVNC[γGlu][Aun]-OH; thioether N-14)
read-out: HC CBA mVISTA IC50
  IC50: 37.2 nM

## CCCCCCN1CC(=O)N[C@@H](Cc2ccc(O)cc2)C(=O)N[C@@H](CCCC)C(=O)N[C@@H](CC(N)=O)C(=O)N[C@@H](CCCNC(=N)N)C(=O)N(C)[C@@H](CCCC)C(=O)N[C@@H](CCCCC)C(=O)N2CCC[C@H]2C(=O)N[C@@H](C(C)C)C(=O)N[C@@H](CC(=O)O)C(=O)N[C@H](C(=O)N[C@@H](CO)C(=O)O)CSCC(=O)N[C@@H](Cc2ccc3ccccc3c2)C(=O)N[C@@H](Cc2c[nH]c3ccccc23)C(=O)N[C@@H](CC(=O)O)C1=O [compound 1255] ({CH2CO}-[2Nal]WD[NHexGly]Y[Nle]NR[NMeNle][Ahp(2)]PVDCS-OH; thioether N-14)
[1]
  IC50: 13.1 nM

## CCCCCCN1CC(=O)N[C@@H](Cc2ccc(O)cc2)C(=O)N[C@@H](CCCC)C(=O)N[C@@H](CC(N)=O)C(=O)N[C@@H](CCCNC(=N)N)C(=O)N(C)[C@@H](CCCC)C(=O)N[C@@H](CCCCC)C(=O)N2CCC[C@H]2C(=O)N[C@@H](C(C)(C)C)C(=O)N[C@@H](CC(=O)O)C(=O)N[C@H](C(=O)N[C@@H](CC(=O)O)C(N)=O)CSCC(=O)N[C@@H](Cc2ccccc2)C(=O)N[C@@H](Cc2c[nH]c3ccccc23)C(=O)N[C@@H](CC(=O)O)C1=O [Example 1371] ({CH2CO}-FWD[NHexGly]Y[Nle]NR[NMeNle][Ahp(2)]P[Tle]DCD-NH2; thioether N-14)
read-out: HC CBA mVISTA IC50
  IC50: 36.6 nM

## CCCCCCN1CC(=O)N[C@@H](Cc2ccc(O)cc2)C(=O)N[C@@H](CCCCC)C(=O)NCC(=O)N[C@@H](CCCNC(=N)N)C(=O)N[C@@H](Cc2ccc(O)cc2)C(=O)N[C@@H](CCCCC)C(=O)N2CCC[C@H]2C(=O)N[C@@H](C(C)C)C(=O)N[C@@H](CO)C(=O)N[C@H](C(=O)NCC(N)=O)CSCC(=O)N[C@@H](Cc2ccccc2)C(=O)N[C@@H](Cc2ccc(O)cc2)C(=O)N[C@@H](CC(=O)O)C1=O [Example 1093] ({CH2CO}-FYD[NHexGly]Y[Ahp(2)]GRY[Ahp(2)]PVSCG-NH2; thioether N-14)
[4]
  IC50: 40.4 nM

## CCCCCCN1CC(=O)N[C@@H](Cc2ccc(O)cc2)C(=O)N[C@@H](CC(C)C)C(=O)N[C@@H](CC(N)=O)C(=O)N[C@@H](CCCNC(=N)N)C(=O)N(C)[C@@H](CCCC)C(=O)N[C@@H](CCCCC)C(=O)N2CCC[C@H]2C(=O)N[C@@H](C(C)(C)C)C(=O)N[C@@H](CO)C(=O)N[C@H](C(=O)NCC(N)=O)CSCC(=O)N[C@@H](Cc2ccccc2)C(=O)N[C@@H](Cc2cccc(Br)c2)C(=O)N[C@@H](CC(=O)O)C1=O [compound 1203] ({CH2CO}-F[Phe(3-Br)]D[NHexGly]YLNR[NMeNle][Ahp(2)]P[Tle]SCG-NH2; thioether N-14)
read-out: HC CBA mVISTA IC50
  IC50: 50.7 nM

## CCCCCCN1CC(=O)N[C@@H](Cc2ccc(O)cc2)C(=O)N[C@@H](CCCCC)C(=O)N[C@@H](CC(N)=O)C(=O)N[C@@H](CCCNC(=N)N)C(=O)N[C@@H](CC(C)C)C(=O)N[C@@H](CCCCC)C(=O)N2CCC[C@H]2C(=O)N[C@@H](C(C)C)C(=O)N[C@@H](CO)C(=O)N[C@H](C(=O)NCC(N)=O)CSCC(=O)N[C@@H](Cc2ccccc2)C(=O)N[C@@H](Cc2ccc(O)cc2)C(=O)N[C@@H](CC(=O)O)C1=O [Example 1031] ({CH2CO}-FYD[NHexGly]Y[Ahp(2)]NRL[Ahp(2)]PVSCG-NH2; thioether N-14)
[4]
  IC50: 34.7 nM

## CCCCCCN1CC(=O)N[C@@H](Cc2ccc(O)cc2)C(=O)N[C@@H](CC(C)C)C(=O)N[C@@H](CC(N)=O)C(=O)N[C@@H](CCCN)C(=O)N(C)[C@@H](CCCC)C(=O)N[C@@H](CCCCC)C(=O)N2CCC[C@H]2C(=O)N[C@@H](C(C)(C)C)C(=O)N[C@@H](CO)C(=O)N[C@H](C(=O)N[C@@H](CC(=O)NCCOCCOCC(=O)N[C@@H](CC(=O)O)C(=O)NCCOCCOCC(=O)NCCCCCCCCCCC(=O)O)C(=O)O)CSCC(=O)N[C@@H](Cc2ccc(C(=O)O)cc2)C(=O)N[C@@H](Cc2ccc(O)cc2)C(=O)N[C@@H](CC(=O)O)C1=O [compound 2047] ({CH2CO}-[Phe(4-COOH)]YD[NHexGly]YLN[Orn][NMeNle][Ahp(2)]P[Tle]SC[βAsp][AEEA]D[AEEA][Aun]-OH; thioether N-14)
[3]
  IC50: 48.8 nM

## CCCCCCN1CC(=O)N[C@@H](Cc2ccc(O)cc2)C(=O)N[C@@H](CC(C)C)C(=O)NCC(=O)N[C@@H](CCCNC(=N)N)C(=O)N[C@@H](Cc2ccc(O)cc2)C(=O)N[C@@H](CCCCC)C(=O)N2CCC[C@H]2C(=O)N[C@@H](C(C)C)C(=O)N[C@@H](CO)C(=O)N[C@H](C(=O)NCC(=O)O)CSCC(=O)N[C@@H](Cc2ccccc2)C(=O)N[C@@H](Cc2ccc(O)cc2)C(=O)N[C@@H](CC(=O)O)C1=O [Example 1095] ({CH2CO}-FYD[NHexGly]YLGRY[Ahp(2)]PVSCG-OH; thioether N-14)
[4]
  IC50: 17.4 nM

## CCCCCCN1CC(=O)N[C@@H](Cc2ccc(O)cc2)C(=O)N[C@@H](CC(C)C)C(=O)N[C@@H](CC(N)=O)C(=O)N[C@@H](CCCNC(=N)N)C(=O)N(C)[C@@H](CO)C(=O)N[C@@H](CCCCC)C(=O)N2CCC[C@H]2C(=O)N[C@@H](C(C)(C)C)C(=O)N[C@@H](CC(=O)O)C(=O)N[C@H](C(=O)N[C@@H](CC(=O)NCCOCCOCC(=O)N[C@@H](CC(=O)O)C(=O)NCCOCCOCC(=O)NCCCCCCCCCCC(=O)O)C(=O)O)CSCC(=O)N[C@@H](Cc2ccccc2)C(=O)N[C@@H](Cc2cccc(C)c2)C(=O)N[C@@H](CC(=O)O)C1=O [compound 2069] ({CH2CO}-F[Phe(3-Me)]D[NHexGly]YLNR[NMeS][Ahp(2)]P[Tle]DC[βAsp][AEEA]D[AEEA][Aun]-OH; thioether N-14)
cell-based binding high-content assay, mVISTA, read-out: HC CBA miPrISTA IC50
  IC50: 45 nM
